Reference: the supplement of paper PMC10307832

Key:
Assay in all cases: relative viability (nuclei count vs DMSO), 5 days (fraction); higher = more cells survive
[1] = test system: NCI-H2405
How it was run: (§1)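 Lung cancer cell lines in 1536-well plates got either a single drug or a fixed anchor-drug dose together with five library-drug doses (not always all listed) in √10 steps, by pin tool, on the day after seeding. Nuclei were counted after 5 days, and relative viability is the treated-to-vehicle ratio of nuclei counts. Values are medians of duplicate plates.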

[2] = test system: BEN
How it was run: as §1

[3] = test system: HCC-366
How it was run: as §1

[4] = test system: LC-2-ad
How it was run: as §1

[5] = test system: NCI-H1437
How it was run: as §1

[6] = test system: NCI-H2170
How it was run: as §1

[7] = test system: SK-LU-1
How it was run: as §1

[8] = test system: NCI-H661
How it was run: as §1

[9] = test system: LOU-NH91
How it was run: as §1

[10] = test system: EKVX
How it was run: as §1

[11] = test system: NCI-H1395
How it was run: as §1

[12] = test system: NCI-H647
How it was run: as §1

[13] = test system: NCI-H2342
How it was run: as §1

[14] = test system: NCI-H2087
How it was run: as §1

[15] = test system: HARA
How it was run: as §1

[16] = test system: NCI-H1355
How it was run: as §1

[17] = test system: SK-MES-1
How it was run: as §1

[18] = test system: NCI-H596
How it was run: as §1

[19] = test system: NCI-H1734
How it was run: as §1

[20] = test system: HCC-827
How it was run: as §1

[21] = test system: NCI-H2009
How it was run: as §1

[22] = test system: NCI-H2228
How it was run: as §1

[23] = test system: HCC-44
How it was run: as §1

C[C@@H]1CN(CC(=O)Nc2ccc3c(c2)Cc2cccc(-c4cc(=O)cc(N5CCOCC5)o4)c2S3)C[C@H](C)O1 + Cc1cc(Nc2cc(N3CCN(C)CC3)nc(Sc3ccc(NC(=O)C4CC4)cc3)n2)n[nH]1 [Tozasertib] (partner 0.1 µM)
relative viability ([1]; first compound 0.04 µM): 0.676 | relative viability ([1]; first compound 0.1265 µM): 0.766 | relative viability ([1]; first compound 0.4 µM): 0.703 | relative viability ([1]; first compound 4 µM): 0.695 | relative viability ([2]; first compound 0.04 µM): 0.449 | relative viability ([2]; first compound 0.1265 µM): 0.49 | relative viability ([2]; first compound 0.4 µM): 0.447 | relative viability ([2]; first compound 4 µM): 0.478 | relative viability ([3]; first compound 0.04 µM): 0.165 | relative viability ([3]; first compound 0.1265 µM): 0.132 | relative viability ([3]; first compound 0.4 µM): 0.0609 | relative viability ([3]; first compound 4 µM): 0.0509 | relative viability ([4]; first compound 0.04 µM): 0.373 | relative viability ([4]; first compound 0.1265 µM): 0.454 | relative viability ([4]; first compound 0.4 µM): 0.467 | relative viability ([4]; first compound 4 µM): 0.44 | relative viability ([5]; first compound 0.04 µM): 0.379 | relative viability ([5]; first compound 0.1265 µM): 0.354 | relative viability ([5]; first compound 0.4 µM): 0.395 | relative viability ([5]; first compound 4 µM): 0.365 | relative viability ([6]; first compound 0.04 µM): 0.708 | relative viability ([6]; first compound 0.1265 µM): 0.764 | relative viability ([6]; first compound 0.4 µM): 0.719 | relative viability ([6]; first compound 4 µM): 0.614 | relative viability ([7]; first compound 0.04 µM): 0.334 | relative viability ([7]; first compound 0.1265 µM): 0.326 | relative viability ([7]; first compound 0.4 µM): 0.323 | relative viability ([7]; first compound 4 µM): 0.217 | relative viability ([8]; first compound 0.04 µM): 0.345 | relative viability ([8]; first compound 0.1265 µM): 0.366 | relative viability ([8]; first compound 0.4 µM): 0.355 | relative viability ([8]; first compound 4 µM): 0.366 | relative viability ([9]; first compound 0.04 µM): 0.605 | relative viability ([9]; first compound 0.1265 µM): 0.649 | relative viability ([9]; first compound 0.4 µM): 0.69 | relative viability ([9]; first compound 4 µM): 0.62 | relative viability ([10]; first compound 0.04 µM): 0.389 | relative viability ([10]; first compound 0.1265 µM): 0.44 | relative viability ([10]; first compound 0.4 µM): 0.432 | relative viability ([10]; first compound 4 µM): 0.305 | relative viability ([11]; first compound 0.04 µM): 0.696 | relative viability ([11]; first compound 0.1265 µM): 0.729 | relative viability ([11]; first compound 0.4 µM): 0.665 | relative viability ([11]; first compound 4 µM): 0.721 | relative viability ([12]; first compound 0.04 µM): 0.461 | relative viability ([12]; first compound 0.1265 µM): 0.278 | relative viability ([12]; first compound 0.4 µM): 0.344 | relative viability ([12]; first compound 4 µM): 0.192 | relative viability ([13]; first compound 0.04 µM): 0.477 | relative viability ([13]; first compound 0.1265 µM): 0.494 | relative viability ([13]; first compound 0.4 µM): 0.559 | relative viability ([13]; first compound 4 µM): 0.384 | relative viability ([14]; first compound 0.04 µM): 0.309 | relative viability ([14]; first compound 0.1265 µM): 0.249 | relative viability ([14]; first compound 0.4 µM): 0.333 | relative viability ([14]; first compound 4 µM): 0.228 | relative viability ([15]; first compound 0.1265 µM): 0.105 | relative viability ([15]; first compound 0.4 µM): 0.0954 | relative viability ([15]; first compound 4 µM): 0.104 | relative viability ([16]; first compound 0.04 µM): 0.361 | relative viability ([16]; first compound 0.1265 µM): 0.514 | relative viability ([16]; first compound 0.4 µM): 0.461 | relative viability ([16]; first compound 4 µM): 0.42 | relative viability ([17]; first compound 0.04 µM): 1.09 | relative viability ([17]; first compound 0.1265 µM): 0.852 | relative viability ([17]; first compound 0.4 µM): 0.826 | relative viability ([17]; first compound 4 µM): 0.647 | relative viability ([18]; first compound 0.04 µM): 0.934 | relative viability ([18]; first compound 0.1265 µM): 1.13 | relative viability ([18]; first compound 0.4 µM): 0.759 | relative viability ([18]; first compound 4 µM): 0.762 | relative viability ([19]; first compound 0.04 µM): 0.286 | relative viability ([19]; first compound 0.1265 µM): 0.238 | relative viability ([19]; first compound 0.4 µM): 0.261 | relative viability ([19]; first compound 4 µM): 0.205 | relative viability ([20]; first compound 0.04 µM): 0.451 | relative viability ([20]; first compound 0.1265 µM): 0.396 | relative viability ([20]; first compound 0.4 µM): 0.41 | relative viability ([20]; first compound 4 µM): 0.427 | relative viability ([21]; first compound 0.04 µM): 0.856 | relative viability ([21]; first compound 0.1265 µM): 0.682 | relative viability ([21]; first compound 0.4 µM): 0.593 | relative viability ([21]; first compound 4 µM): 0.503 | relative viability ([22]; first compound 0.04 µM): 0.235 | relative viability ([22]; first compound 0.1265 µM): 0.214 | relative viability ([22]; first compound 0.4 µM): 0.245 | relative viability ([22]; first compound 4 µM): 0.162 | relative viability ([23]; first compound 0.04 µM): 0.862 | relative viability ([23]; first compound 0.1265 µM): 0.933 | relative viability ([23]; first compound 0.4 µM): 1.05 | relative viability ([23]; first compound 4 µM): 0.652
